Data on 3 compounds can be found in patent publication US9131722B2, “Composition comprising the extract of Actinidia arguta and related species for the prevention and treatment of allergic disease and non-allergic inflammatory disease” (VIROMED CO., LTD., priority 2002, dated 2015).

In assay [1] the test system is edema induced by arachidonic acid in the ears of mice. The experiment in a line: Edema induced by arachidonic acid in the ears of mice. The class given is in vivo. As to conditions: BALB/c, p.o. 1 hour before arachidonic acid, extract 200 mg/kg, indomethacin 10 mg/kg. The protocol:
15 mice (8 week old male BALB/c) were fasted for 18 hours with free access to water and divided into 3 groups. Inflammation was induced by topical application of arachidonic acid (0.5 mg/20 μl acetone) to the right ear of each mouse. The left ear was used as a negative control and received the vehicle (20 μl acetone). The hardy kiwifruit extract (200 mg/kg in water) was administered p.o. 1 hour prior to arachidonic acid application. The positive control group received indomethacin (10 mg/kg, p.o.) 1 hour before arachidonic acid application. Inflammation was followed for 1 hour and thereafter the animals were sacrificed. A section of 6 mm diameter disc from each ear was obtained and weighed. The edema index was assessed using the increase in the weight of the treated right ear punch biopsy over that of the untreated left ear.

Assay [2] has as its system splenocytes of Nc/Nga mouse. The assay is described as follows: Nc/Nga mouse model: Th1/Th2 cytokine production by ConA-stimulated splenocytes. The assay is classed as in vivo. As to conditions: ConA 1 μg/ml, 3 days. The protocol:
For experiment, 15 of Nc/Nga mice (7 weeks after birth, female) were divided into 3 groups and adapted to new circumstance for 1 week. […] To compare the progress of dermatitis symptom, the scratching frequency of mouse (the time spent scratching during 20 min-observation) was measured when mice is grown at the age of 12 and 14 weeks. 16 weeks old mouse was sacrificed and the quantity of IgE, IgG1 and IgG2a level in serum were measured by ELISA method. Also, to compare the production of Th1/Th2 cytokines, splenocyte was prepared by conventional method from each mouse, transferred into 24-well plate (5×10^6 cells/ml/well) and incubated with ConA (1 μg/ml) for 3 days and then the levels of IL-4, IL-5, IL-12, and Interferon-γ were measured by ELISA method.

For assay [3], the system named is splenocytes of ovalbumin-sensitized mouse. The experiment in a line: Ovalbumin-sensitized mouse model: expression of cytokines by splenocytes re-stimulated with ovalbumin (ELISA). The class given is in vivo. To be noted: splenocytes of OVA-stimulated mouse, ovalbumin 100 μg/ml, 3 days. The protocol:
The ovalbumin-sensitized mouse model is commonly used as animal model of allergy. Female BALB/c mice, aged 6 weeks (Seoul national university animal experimental center) were adapted to the environment for 7 days.
On the 25th day, mice were sacrificed and blood serum and spleen was collected therefrom.
Each prepared splenocytes was pooled and homogenized under an aseptic condition.
Splenocytes prepared as above were inoculated in 24-well plate (5×10^6 cell/ml/well), treated with 100 μg/ml of ovalbumin, and incubated at 37° C. under an atmosphere containing 5% CO2 for 3 days. After cultivation was finished, a culture solution was gathered and then the concentration of cytokines (IL-4, IL-5, IL-12 and interferon-γ) related to allergy were measured by commercial ELISA kits.
On the technique in general: ELISA stands for enzyme-linked immunosorbent assay.

The test system of another assay is U266B1 cell line. The assay is described as follows: Inhibition of IgE production in LPS-stimulated U266B1 cell line (ELISA). The class given is cell-based, human. As to conditions: 7 days.
In assay [4] the test system is ovalbumin-sensitized mouse. The experiment in a line: Ovalbumin-sensitized mouse model: ovalbumin-specific IgE, IgG1, IgG2a, IgG2b in serum (ELISA). The assay is classed as in vivo. To be noted: BALB/c, oral 11 days, extract 300 μg/mouse/day, dexamethasone 10 μg/mouse/day. The protocol: The ovalbumin-sensitized mouse model is commonly used as animal model of allergy. Female BALB/c mice, aged 6 weeks (Seoul national university animal experimental center) were adapted to the environment for 7 days. At the time of 7 weeks after birth, 100 μl of emulsion, mixed 25 μg of ovalbumin (chicken egg albumin, crude grade V, Sigma Co., Ltd.) with 2.25 mg of aluminum hydroxide (ImujectAlum, Pierce Co., Ltd.) was injected into mouse peritoneal cavity and 14 days after, it was injected once more for boosting.
And then 30 mice were divided into 3 groups and each group was orally administered with the hardy kiwifruit water extract of Example 1-1 (300 μg/mouse/day), dexamethasone (10 μg/mouse/day), or drinking water (100 μg/mouse/day) for 11 days, respectively. On the 25th day, mice were sacrificed and blood serum and spleen was collected therefrom.
In serum collected in Example 2-1, the serum levels of ovalbumin-specific IgE, IgG1, IgG2a and IgG2b were measured by ELISA kits (PharMingen Co., Ltd).

The next assay has as its system Nc/Nga mouse. The experiment in a line: Nc/Nga mouse model of atopic dermatitis: scratching and serum IgE, IgG1, IgG2a. The class given is in vivo. To be noted: oral 8 weeks, extract 300 μg/mouse/day, dexamethasone 10 μg/mouse/day, 16 weeks old. The protocol:
To confirm anti-allergic effect of hardy kiwifruit extract in animals, Nc/Nga mouse model that has been widely used as an animal model for human atopic dermatitis study was employed.
For experiment, 15 of Nc/Nga mice (7 weeks after birth, female) were divided into 3 groups and adapted to new circumstance for 1 week. Since 8 weeks after birth, the hardy kiwifruit extract (300 μg/mouse/day) prepared in example 1-1 as a treatment group had been orally administered and dexamethasone (10 μg/mouse/day) or drinking water (100 μg/mouse/day) as control groups had been orally administered for 8 weeks. To compare the progress of dermatitis symptom, the scratching frequency of mouse (the time spent scratching during 20 min-observation) was measured when mice is grown at the age of 12 and 14 weeks. 16 weeks old mouse was sacrificed and the quantity of IgE, IgG1 and IgG2a level in serum were measured by ELISA method. Also, to compare the production of Th1/Th2 cytokines, splenocyte was prepared by conventional method from each mouse, transferred into 24-well plate (5×10^6 cells/ml/well) and incubated with ConA (1 μg/ml) for 3 days and then the levels of IL-4, IL-5, IL-12, and Interferon-γ were measured by ELISA method.

Assay [5] deals with mice peritoneal mast cells. The experiment in a line: Inhibition of histamine release from mice peritoneal mast cells. As to conditions: Mus musculus, Mast cell, 0.5 h; anti-DNP24-BSA IgE sensitized, DNP24-BSA 20 ng/ml 30 min; extract 100 μg/ml, Cromolyn 10^−4 M. The assay is classed as cell-based. The protocol:
Each mouse was anesthetized with ether, and injected with 20 ml of Tyrode buffer B (NaCl, glucose, NaHCO3, KCl, NaH2PO4) containing 0.1% gelatin into the peritoneal cavity; then the abdomen was gently massaged for about 90 seconds. The peritoneal cavity was carefully opened, and the fluid containing peritoneal cells was aspirated by pasteur pipette. The peritoneal cells were then sedimented at 150×g for 10 min. at room temperature and resuspended in Tyrode buffer B. Mast cells were separated from the major components of rat peritoneal cells as described in the literature (Yurt et al., J Exp Med., 1; 146(5), pp 1405-19, 1977). Peritoneal cells suspended in 1 ml of Tyrode buffer B were layered onto 2 ml of 0.225 g/ml metrizamide (density 1.120 g/ml) and centrifuged at room temperature for 15 min at 400×g. […] Mast cells were stimulated with 20 ng/ml of DNP24-BSA as an antigen for 30 min., and histamine released into the medium was measured by […]). Inhibition of histamine release was calculated as following empirical formula 1; Percent inhibition=100×(A-B)/(A-C) [Empirical Formula 1] • A: Stimulated level (Histamine release with IgE-stimulation). • B: Suppressed level (Histamine release with IgE-stimulation and drug treatment). • C: Basal level (Histamine release without IgE-stimulation).

Description for U266B1 cell line: To confirm the inhibitory effect of hardy kiwifruit extraction on IgE production, U266B1 cell (lymphoblastoma cell line) was used. U266B1 is cell line of human B cell, which produces IgE.
U266B1 cells (American Type Culture Collection, Manassas, Va.) was cultured at 37° C. under 5% CO2 circumstances in 24-well culture plate containing RPMI-1640 medium (15% FBS, 2 mM L-glutamine, 10 mM HEPES, 1 mM sodium pyruvate, 50 μg streptomycin and 100 U/ml penicillin). […] Control was treated with 2 μM dexamethasone or medium (RPMI-1640). After treatment, cells were cultured for 7 days and IgE concentration of medium was measured by ELISA kit (PharMingen; San Diego, Calif.).
Silica gel column chromatography fraction [1], [2], [3] and [4] were treated to U266B1 cell line (at 10 μg/ml).

Turning to `COc1ccc2c(c1)c(CC(=O)O)c(C)n2C(=O)c1ccc(Cl)cc1` [Indomethacin, indomethacin], the Index of edema in assay [1] (control 7.2 ± 1.1) came to 1.3 ± 0.3 mg. The inhibition (usually how much of the control response was suppressed) at 10 mg/kg in assay [1] (Mus musculus, po, read-out: Inhibition rate (%)) is 81.9%.

On to `C[C@@H]1C[C@H]2[C@@H]3CCC4=CC(=O)C=C[C@]4(C)[C@@]3(F)[C@@H](O)C[C@]2(C)[C@@]1(O)C(=O)CO` [Dexamethasone, dexamethasone], for which the IL-4 in assay [2] (drinking water 151.9) amounted to 42.7 ± 19.4 pg/mL; in assay [3] (drinking water 159.5, normal mouse 21.6), 23.2 ± 8.7 pg/mL. Also, the IL-5 in assay [2] (drinking water 778.3) is 646.5 ± 51.7 pg/mL; in assay [3] (drinking water 2573.6, normal mouse 0.5), 884.1 ± 80.7 pg/mL. The IL-12 in assay [2] (drinking water 1925.7) was 201.2 ± 12.1 pg/mL; in assay [3] (drinking water 906.2, normal mouse 1626.0), 297.7 ± 16.4 pg/mL. The Interferon-γ worked out at 10096.4 ± 192.4 pg/mL in assay [2] (drinking water 10407.5) and 470.5 ± 38.6 pg/mL in assay [3] (drinking water 1016.0, normal mouse 14.1). Further, the “IgE (IU/ml)” value is 203.6 ± 30.9 IU/ml in the assay with U266B1 cell line (U266B1, LPS 2 μg/ml, extracts 100 μg/ml, dexamethasone 2 μM, LPS+medium 392.9, no LPS 187.8); 138.9 ± 2.1 IU/ml in the assay with U266B1 cell line (U266B1, LPS stimulation, fractions at 30 μg/ml, LPS+medium 212.5, no LPS 117.4); 277.6 ± 12.4 IU/ml with U266B1 cell line (U266B1, LPS stimulation, silica gel fractions at 10 μg/ml, LPS+medium 540.4, no LPS 379.7). Besides, the ovalbumin-specific IgG2b in serum in assay [4] (normal 1.0, drinking water 1.4, the values are: IgG2b relative to normal mice) amounted to 1.2 ± 0.1. Moreover, in assay [4] (normal 1.0, drinking water 2.1, the values are: IgG2a relative to normal mice), the ovalbumin-specific IgG2a in serum worked out at 1.9 ± 0.4. Moreover, the ovalbumin-specific IgG1 in serum in assay [4] (normal 1.0, drinking water 5.1, the values are: IgG1 relative to normal mice) was 3.1 ± 0.3. Further, the ovalbumin-specific IgE in serum in assay [4] (normal 1.0, drinking water 7.6, the values are: IgE relative to normal mice) came to 2 ± 0.6. In the assay on Nc/Nga mouse (drinking water 177.5), this compound came in with an IgG2a in serum of 148.0 ± 14.8 pg/mL. In the assay with Nc/Nga mouse (drinking water 242.2), this compound registered an IgG1 in serum of 247.3 ± 10.8 pg/mL. The same compound showed an IgE in serum in the assay with Nc/Nga mouse (drinking water 1572.9) of 130.0 ± 55.3 pg/mL.

With `O=C(O)c1cc(=O)c2c(OCC(O)COc3cccc4oc(C(=O)O)cc(=O)c34)cccc2o1` [Cromolyn], the inhibition at 100 µM in assay [5] stood at 52 ± 13%.
